Results reported in PMC12645437, “Orthogonal IMiD-Degron Pairs Induce Selective Protein Degradation in Cells” (ACS Chemical Biology, 2025).
Values joined by “and” are separate entries in the source; they are usually repeats but may differ in a detail not shown here. Equal entries are not always repeated.

Tests used:
[1] = system: library of 8380 IKZF3 degrons fused to EGFP in Jurkat cells; assay: Pooled mutant ZF degron library screen (FACS EGFPlow vs EGFP+, NGS), 18 h; assay type: cell-based, human;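 for logFC: Log2 fold change of EGFPlow over EGFP+ representation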
[2] = molecular target: T1, endogenous IKZF1 in Jurkat cells (Homo sapiens, UniProt Q13422+Q96SW2); assay: Endogenous IKZF1 immunostaining, fluorescent antibody flow cytometry assay; assay type: cell-based; settings: 18 h
T1 construct: endogenous in cells; host or cells: Jurkat (untransduced for immunostaining; WEIS-EGFP-transduced for the blot)
Description: As we sought to screen a large number of mutant ZF degrons with different mutation combinations, we pursued a library screen approach similar to that previously employed by Sievers et al. and Jan et al. , Only the most promising compounds from the original set of 36 were used for the library screen. To help narrow the candidates, a subset of compounds was tested for endogenous IKZF1 degradation in Jurkat cells using a fluorescent antibody flow cytometry assay (Figure S5). […] Thalidomide and lenalidomide were also included as controls.
Endogenous IKZF1 Immunostaining
37 °C and 5% CO2. Following incubation, cells were stained with LIVE/DEAD™ Fixable Aqua Dead Cell Stain (Thermo) diluted 1000X in PBS for 30 min at room temperature and then incubated with Human TruStain FcX block (Biolegend) diluted 40X in PBS + 1% FBS (Gibco) for 10 min at room temperature. Intranuclear staining of IKZF1 was carried out using the Transcription Factor Buffer Set (BD Bioscience) according to the manufacturer's protocol and staining with IKZF1 AF488 antibody (clone R32-1149, BD Bioscience) diluted 40X for 30 minutes at room temperature. Cells were acquired on a Cytoflex S (Beckman Coulter) and data analysed using FlowJo 10.8.1 9 (BD).

[3] = molecular target: T2, Q147A mutant degron (ANQS) fused to EGFP (Homo sapiens, UniProt Q96SW2+Q9UKT9, Q147A); assay: Ratiometric EGFP:mCherry flow cytometry degradation assay, 18 h; assay type: cell-based; settings: Jurkat, 18 h; Fig 2B; read-out: DMax Q147A/%
T2 construct: pLVX-Sprout-IKZF3 130-189aa Q147A (ANQS); expressed in transfected cells

[4] = WT degron, residues 146/147/149/150/152/153/154/155/167: FQNQGASFL
[5] = degron residues 146/147/149/150/152/153/154/155/167: FADIGAAFL
[6] = degron residues 146/147/149/150/152/153/154/155/167: FADIGACFL
[7] = degron residues 146/147/149/150/152/153/154/155/167: FADIGADFL
[8] = degron residues 146/147/149/150/152/153/154/155/167: FADIGAEFL
[9] = degron residues 146/147/149/150/152/153/154/155/167: FREIGAPFL
[10] = degron residues 146/147/149/150/152/153/154/155/167: FYEVGACFL

T1 sequence (Q13422 whole entry): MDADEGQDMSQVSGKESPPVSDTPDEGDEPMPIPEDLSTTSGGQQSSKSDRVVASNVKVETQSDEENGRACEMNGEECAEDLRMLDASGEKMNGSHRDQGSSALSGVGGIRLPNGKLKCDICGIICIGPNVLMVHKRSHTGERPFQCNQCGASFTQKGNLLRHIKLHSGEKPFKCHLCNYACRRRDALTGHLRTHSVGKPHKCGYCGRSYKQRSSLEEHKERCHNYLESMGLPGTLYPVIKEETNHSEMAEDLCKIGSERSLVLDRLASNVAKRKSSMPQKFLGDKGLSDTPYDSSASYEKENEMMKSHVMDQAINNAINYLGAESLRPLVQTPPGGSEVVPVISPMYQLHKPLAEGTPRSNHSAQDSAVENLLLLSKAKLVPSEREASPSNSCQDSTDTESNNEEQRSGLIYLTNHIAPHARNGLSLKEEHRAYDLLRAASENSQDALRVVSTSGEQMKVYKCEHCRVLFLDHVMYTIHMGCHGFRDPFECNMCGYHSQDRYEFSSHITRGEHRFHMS
T1 sequence (Q96SW2 whole entry): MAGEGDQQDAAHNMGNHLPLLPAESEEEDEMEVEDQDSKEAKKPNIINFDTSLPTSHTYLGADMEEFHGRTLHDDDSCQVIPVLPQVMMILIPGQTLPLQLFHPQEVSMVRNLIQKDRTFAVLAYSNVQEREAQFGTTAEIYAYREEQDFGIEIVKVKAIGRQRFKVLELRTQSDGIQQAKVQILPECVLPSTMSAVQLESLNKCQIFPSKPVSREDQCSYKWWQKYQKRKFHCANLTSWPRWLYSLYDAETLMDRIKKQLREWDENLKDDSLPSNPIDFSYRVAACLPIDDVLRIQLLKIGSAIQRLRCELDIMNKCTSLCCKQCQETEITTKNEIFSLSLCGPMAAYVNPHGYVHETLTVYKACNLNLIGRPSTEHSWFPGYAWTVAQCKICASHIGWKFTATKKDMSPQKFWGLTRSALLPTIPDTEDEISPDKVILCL
T1 sequence (Q16531 whole entry partner): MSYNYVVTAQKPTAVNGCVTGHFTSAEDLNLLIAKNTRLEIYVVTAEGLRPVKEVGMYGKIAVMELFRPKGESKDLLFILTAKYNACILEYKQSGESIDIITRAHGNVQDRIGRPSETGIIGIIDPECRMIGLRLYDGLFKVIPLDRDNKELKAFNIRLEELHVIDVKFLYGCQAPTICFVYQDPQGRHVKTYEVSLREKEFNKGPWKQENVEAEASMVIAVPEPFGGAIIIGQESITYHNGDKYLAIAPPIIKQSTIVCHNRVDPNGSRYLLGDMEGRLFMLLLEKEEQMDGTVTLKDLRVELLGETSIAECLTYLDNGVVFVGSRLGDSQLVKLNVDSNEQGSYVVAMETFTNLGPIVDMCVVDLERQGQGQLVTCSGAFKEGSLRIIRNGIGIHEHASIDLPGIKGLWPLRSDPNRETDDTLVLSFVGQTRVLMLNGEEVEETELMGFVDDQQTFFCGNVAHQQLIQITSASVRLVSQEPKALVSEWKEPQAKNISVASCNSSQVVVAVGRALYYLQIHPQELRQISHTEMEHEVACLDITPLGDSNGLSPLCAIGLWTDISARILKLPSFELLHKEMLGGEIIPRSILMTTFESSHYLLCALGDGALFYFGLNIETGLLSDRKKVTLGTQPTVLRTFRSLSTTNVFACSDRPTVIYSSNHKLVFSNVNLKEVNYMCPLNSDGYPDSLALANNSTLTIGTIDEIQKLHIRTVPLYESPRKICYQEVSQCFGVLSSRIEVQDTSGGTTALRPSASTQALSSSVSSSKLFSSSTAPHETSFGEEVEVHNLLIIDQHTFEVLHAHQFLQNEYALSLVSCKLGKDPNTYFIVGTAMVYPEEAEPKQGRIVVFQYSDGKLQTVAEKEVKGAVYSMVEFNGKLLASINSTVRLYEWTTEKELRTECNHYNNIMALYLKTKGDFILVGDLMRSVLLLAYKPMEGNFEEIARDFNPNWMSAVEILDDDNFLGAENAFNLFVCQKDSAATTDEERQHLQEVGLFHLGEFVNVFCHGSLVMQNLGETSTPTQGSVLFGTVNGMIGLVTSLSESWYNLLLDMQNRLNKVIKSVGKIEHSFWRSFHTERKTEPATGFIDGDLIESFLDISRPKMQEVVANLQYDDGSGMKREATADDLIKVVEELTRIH
T2 sequence (Q9UKT9 130-189 Q147A): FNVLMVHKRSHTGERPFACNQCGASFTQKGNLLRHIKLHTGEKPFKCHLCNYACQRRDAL
T2 sequence (Q96SW2 whole entry, the tested form may be a part): as the sequence (Q96SW2 whole entry) above
T2 sequence (Q16531 whole entry partner, the tested form may be a part): as the sequence (Q16531 whole entry partner) above

Structure (SMILES): O=C1CCC(N2C(=O)c3ccc(N4CCOCC4)cc3C2=O)C(=O)N1 (stereo not drawn) [Compound 22]
- Log2FC [1, 4]: -1.0370
- logFC [1, 5]: 2.037
- logFC [1, 6]: 0.5955
- logFC [1, 7]: -1.619
- logFC [1, 8]: -0.4533
- Log2FC ([1]; degron residues 146/147/149/150/152/153/154/155/167: FFEIGACFL): 3.8315
- Log2FC ([1]; degron residues 146/147/149/150/152/153/154/155/167: FIPVGAPFL): 3.937
- Log2FC [1, 9]: 3.9835 and 3.984
- Log2FC ([1]; degron residues 146/147/149/150/152/153/154/155/167: FWDVGANFL): 3.8903
- Log2FC ([1]; degron residues 146/147/149/150/152/153/154/155/167: FWDVGAQFL): 3.8513
- Log2FC ([1]; degron residues 146/147/149/150/152/153/154/155/167: FWEIGAAFL): 3.8306
- Log2FC ([1]; degron residues 146/147/149/150/152/153/154/155/167: FWEIGAQFL): 3.9298 and 3.93
- Log2FC ([1]; degron residues 146/147/149/150/152/153/154/155/167: FWEVGAAFL): 3.9041
- Log2FC ([1]; degron residues 146/147/149/150/152/153/154/155/167: FWEVGAHFL): 3.9186
- Log2FC ([1]; degron residues 146/147/149/150/152/153/154/155/167: FWEVGAKFL): 3.8571
- Log2FC ([1]; degron residues 146/147/149/150/152/153/154/155/167: FWEVGANFL): 3.8564
- Log2FC ([1]; degron residues 146/147/149/150/152/153/154/155/167: FWPVGANFL): 3.8155
- Log2FC ([1]; degron residues 146/147/149/150/152/153/154/155/167: FWPVGAQFL): 3.9190
- Log2FC ([1]; degron residues 146/147/149/150/152/153/154/155/167: FYEIGAKFL): 3.8391
- Log2FC ([1]; degron residues 146/147/149/150/152/153/154/155/167: FYEIGATFL): 4.0154 and 4.054
- Log2FC [1, 10]: 3.8457
- Log2FC ([1]; degron residues 146/147/149/150/152/153/154/155/167: FYEVGANFL): 3.8762
- Log2FC ([1]; degron residues 146/147/149/150/152/153/154/155/167: FYEVGASFL): 3.8615
- Log2FC ([1]; degron residues 146/147/149/150/152/153/154/155/167: FYEVGATFL): 4.1392 and 4.14
- Log2FC ([1]; degron residues 146/147/149/150/152/153/154/155/167: LYEIGFRCL): 3.9018
- degradation of endogenous IKZF1 [2]: did not induce degradation of endogenous IKZF1
- Dmax [3]: 76%

Structure (SMILES): O=C1CCC(N2C(=O)c3cccc(NC(c4ccccc4)c4ccccc4)c3C2=O)C(=O)N1 (stereo not drawn) [Compound 33]
- Log2FC [1, 4]: -1.2556
- logFC [1, 5]: -0.4744
- logFC [1, 6]: -0.1939
- logFC [1, 7]: -2.168
- logFC [1, 8]: -2.426
- Log2FC ([1]; degron residues 146/147/149/150/152/153/154/155/167: FGPVGAFFL): 3.1139
- Log2FC ([1]; degron residues 146/147/149/150/152/153/154/155/167: FMEIGAAFL): 3.1949
- Log2FC ([1]; degron residues 146/147/149/150/152/153/154/155/167: FMEIGAPFL): 3.1328
- Log2FC ([1]; degron residues 146/147/149/150/152/153/154/155/167: FMEVGAPFL): 3.1157
- Log2FC ([1]; degron residues 146/147/149/150/152/153/154/155/167: FMNIGAPFL): 3.2358 and 3.236
- Log2FC ([1]; degron residues 146/147/149/150/152/153/154/155/167: FMPIGAPFL): 3.0896
- Log2FC ([1]; degron residues 146/147/149/150/152/153/154/155/167: FMPVGAAFL): 3.0783
- Log2FC ([1]; degron residues 146/147/149/150/152/153/154/155/167: FMPVGAPFL): 3.0869
- Log2FC ([1]; degron residues 146/147/149/150/152/153/154/155/167: FRDIGAPFL): 3.3226 and 3.323
- Log2FC ([1]; degron residues 146/147/149/150/152/153/154/155/167: FRDVGAPFL): 3.2095
- Log2FC [1, 9]: 3.3123
- Log2FC ([1]; degron residues 146/147/149/150/152/153/154/155/167: FREVGAPFL): 3.3928 and 3.393
- Log2FC ([1]; degron residues 146/147/149/150/152/153/154/155/167: FRPVGAPFL): 3.2684 and 3.268
- Log2FC ([1]; degron residues 146/147/149/150/152/153/154/155/167: FYEIGAQFL): 3.1346
- Log2FC [1, 10]: 3.1049
- Log2FC ([1]; degron residues 146/147/149/150/152/153/154/155/167: LCPIGFTCL): 3.1410
- Log2FC ([1]; degron residues 146/147/149/150/152/153/154/155/167: LCPIGFYCL): 3.1590
- Log2FC ([1]; degron residues 146/147/149/150/152/153/154/155/167: LYEIGFSCL): 3.0997
- Log2FC ([1]; degron residues 146/147/149/150/152/153/154/155/167: LYEIGFTCL): 3.1905
- Log2FC ([1]; degron residues 146/147/149/150/152/153/154/155/167: LYPIGFSCL): 3.0902
- degradation of endogenous IKZF1 [2]: modest degradation of IKZF1
- Dmax [3]: 97%
